Test results from patent US12495818B2, “Dihydrochalcones from Balanophora harlandii” (The Coca-Cola Company, priority 2018, dated 2025).

System: panelists
Experiment: Sweetness enhancement taste panel (Example 2)
Assay type: in vivo, human
Conditions: 20 ppm CC-00474 + 250 ppm Rebaudioside M in acidic water (citric acid) vs control of 250 ppm Rebaudioside M and PG; served cold, sip and spit; all panelists agreed
Experimental: Samples were prepared with the following ingredients:
CC-00474 in PG was prepared in weighing boat and added to Reb M solution while stirring. The weighing boat was rinsed with Reb M solution. The solution was stirred visibly clear and the sample was poured into a glass bottle and stored at 4° C.
Bottles were removed from the refrigerator and about 25 ml of beverage was poured into 4 oz-plastic cups. Panelists were given mineral water to rinse their mouth before tasting and between tasting different samples. Unsalted crackers were also given to panelist to eat followed by rinsing their mouth with mineral water before tasting the next sample.
A sample of Rebaudioside M in acidic water and a sample of CC-00474 and Rebaudioside M in acidic water were given to panelists. Panelists were asked to evaluate the sweetness of samples and describe the difference of taste profile. Panelists were instructed to sip, evaluate the sweetness, and then spit the samples in cups provided for that purpose.

For `COc1cc(CCC(=O)c2c(O)cc(O[C@@H]3OC(CO)[C@@H](O)[C@H](O)C3O)cc2O)ccc1O` (stereo partly drawn) [CC-00474, 3-methoxyphloretin-4′-O-β-D-glucoside], the “sweetness of the sample compared with Rebaudioside M only” value was “sweeter than the sample containing Rebaudioside M only”.
